Assays:
SKH-1 mice [1] = test: Photocarcinogenesis: chronic exposure to UV-B, precancerous lesions/tumors per mouse; format: in vivo; settings: after 30 weeks of chronic exposure to UV-B
Excerpt: The role of UV-B radiation in tumor formation is well known. The continuous exposure to UV-B promotes the formation of oxidative/nitrosative stress, along with alterations in DNA, proteins, etc. that activates various transcription factors (among them NF-κB and AP-1), increase in the telomerase activity, stress, etc. which in turn induces carcinogenesis.
The mice chosen for this study were SKH-1.
The protocol used was the standardized protocol, whereby several mice were irradiated three times per week with a dose of 180 mJ/cm^2 with exposures for 24 weeks; however, […], in order to obtain more evidence of the photoprotector effect on the different treatments used.
The dose of exposure was 180 mJ/cm2, since it had been determined in previous trials that this was the minimal erythemic dose (MED) for this type of rodent.
A range of different commercial photoprotectors were included in this study: • Vichy: Capital Soleil SPF-50+(Vichy Laboratoires). • Isdin: Photoprotector Isdin Extrem (SPF-40 (Isdin SA) • Heliocare: Heliocare gel Protection Ultra 90 (Difa Cooper S.P.A.)
Both the reference compounds and the ones subject of this study were applied to the back of the mice for 20 minutes prior to their exposure to UV-B. […]
During the photocarcinogenesis process, the presence of different tumors was followed and quantified throughout the process. […]

SKH-1 mice [2] = test: Skinfold thickness (edema) after acute UV-B exposure of 360 mJ/cm2; format: in vivo
Description: UVB Acute exposure protocols were used: Mice underwent a single exposure of 360 mJ/cm2. The study was conducted at 24 hours after exposure. This protocol was used to evaluate the photoprotective effect of the compounds studied. With the same acute-phase protocol mice from all groups were irradiated. Subsequently mice remained in the animal storage area for a week to see the evolution of the inflammatory response and edema. For the UVB exposure studies (chronic or acute) a topical administration to the back of the mouse was conducted. The commercial sunscreens were applied directly on the mouse. The polyphenols in the study were administered in a liposomal preparation diluted 1:1 with Carbopol polymer which will be the vehicle for these liposomes. Each polyphenol dose administered was 10 μmol/mouse, as free acid. • 1. Edema formation: skinfold thickness was determined with a caliper 24 hours after the first exposure. • 2. Study of the thickness of the epidermis after exposure to acute irradiation (360 mj/cm^2 24 h hours and 7 days after irradiation). • 3. Histological studies: measuring, in the pictures obtained from histological sections, the thickness of the epidermis. With the purpose of assessing the effects of the photoprotective compounds studied, female mice SKH-1 of between 6-8 weeks old were subjected to a single exposure of 360 mJ/cm. For the ultraviolet B (UVB) irradiation exposure, a camera specifically prepared, available at our laboratory was used (Crosslinker; Bio-Link BLX 254) equipped with 5 tubes that produce 80% of the UVB radiation, with a maximum emission of 312 nm. The two protocols of UV-B exposure used were: • Intense exposure after a single exposure of 360 mJ/cm^2. The study was carried out 24 hours after the exposure. This protocol was used to assess the photoprotective effects of the compounds studied. • Intense exposure after a single exposure of 360 mJ/cm^2. The study was carried out 1 week after the exposure. The mice were kept in the shed for a week to observe the evolution of the inflammatory and edematous response. As reference, several commercial photoprotective products were used ([…] Heliocare). The reference compounds as well as the products object of this study, were applied on the back of the mice for 20 minutes after or 20 minutes before the irradiation with UV-B, to determine if the reaction observed was due to an effect of the solar filter or not. […] The skinfold was measured by making a fold on the skin from the back of the mice, from the axillae to the hips; the fold was measured with a vernier caliper. The increase in the fold was calculated by the difference between the initial point, before the effects of the reaction, and the thickness in each point.

[3] = Absorption spectrum of polyphenols (mechanical filter capacity); format: physicochemical; settings: 1 mM in pure ethanol, 200-800 nm
Description: A solution of 1 mM of each polyphenol was prepared (PTER, Resveratrol and QUER) in absolute ethanol (HPLS quality; Quima) and the absorption spectrum was studied between 200 and 800 nm using a Multiskan Spectrum (ThermoScientific).
With the purpose of studying the capacity of the polyphenols used in this study, we decided to evaluate the absorption of light throughout the ultraviolet light spectrum as shown in FIG. 13.

SMILES: COc1cc(/C=C/c2ccc(O)cc2)cc(OC)c1 [PTER, 3,5-dimethoxy-4′-hydroxy-trans-resveratrol]
- mice presenting lesions (SKH-1 mice [1]): 10%
- formation of the edema (thickness of the skin) after severe UV-B exposure (SKH-1 mice [2]; FIG. 1): the formation of the edema was reduced
- skinfold thickness 24 h after irradiation, applied after UVB (SKH-1 mice [2]; FIG. 1, applied 20 min after): more efficient for the treatment of skin diseases, damages or injuries due to radiation, when applied after the exposure to UVB, than the commercial creams (Vichy, Heliocare and Isdin) and that RESV
- skinfold thickness 24 h after irradiation, applied before UVB (SKH-1 mice [2]; FIG. 1, applied 20 min before): more efficient as photoprotector, when applied before the exposure to UVB, than the commercial creams (Vichy, Heliocare and Isdin) and that RESV
- absorption of light, range of maximum absorption [3]: peaks or maximum absorption in the range of Ultraviolet B
